Data from patent US20040043403A1, “Process for determining the biological activity of epidermal growth factor receptor tyrosine kinase inhibitors” (priority 2000, published 2004).

Columns and labels:
[1] = test system: NCI-H520; assay: Real time RT-PCR gene expression in NCI-H520 cells; assay type: cell-based, human; conditions: NCI-H520, 3 μM, 24 h; relative to DMSO-treated NCI-H520 calibrator
Description: 20 million tissue culture cells (about 80% confluent) or 200 million WBCs are incubated for 2 or 24 h in culture medium containing 3 μM of an EGFR tyrosine kinase inhibitor or 0.03% DMSO. Total RNA from cell pellet is isolated using the RNeasy kit (Qiagen). mRNA is isolated using the oligotex mRNA purification kit (Qiagen). The quality of the obtained mRNA is tested by real time RT-PCR using beta-Actin primers (PE Applied Biosystems) with an amplicon size of 300 base pairs (bp). The total RNA is used as a reference to calculate the amount of mRNA-enrichment in the oligotex purified samples. The primers and probes are designed from mRNA sequences within the coding region or in the 3′ untranslated region (Table 2). For real time RT-PCR, RNA concentrations between 1 and 50 ng/reaction are used to obtain signals between 15-35 cycles. For each RNA preparation RT-PCR reactions are performed with and without reverse transcriptase to check for genomic DNA contamination. In all RNA samples tested, genomic DNA contamination is less than 1%. To normalize for variability in the initial concentration and quality of the total RNA, Glyceraldehyde-3-phosphate dehydrogenase (GAPDH) is used as an endogenous reference in all quantification experiments. For RT-PCR a one step, two-enzyme system is chosen. The TaqMan PCR Core Reagent Kit (PE #N808-0228) plus the reverse transcriptase MuLV (PE Biosystems # N808-0018) and RNase inhibitor (Roche Diagnostics # 799 025) are mixed as described in the manufacturers protocol. Triplicate measurements are done for target and for reference reactions. […] RT-PCR reactions are done with RNA concentrations of 2.5, 5, 10, 20, 40 and 80 ng per reaction. […] The ΔCT value is determined by subtracting the average reference CT values from the average target CT values of the three measurements. Relative quantification is performed in triplicates, reference and target, using the RT-PCR protocol described above. […] Expression levels for the three genes, calculated relative to NCI-H520, show big differences between the various cell types (Table 5). […]

[2] = test system: A431 cells; assay: UniGEM 1 cDNA array expression profile of A431 cells; assay type: cell-based, human; conditions: 24 hours
Description: The following tissue culture cells are chosen because of their EGFR expression status (Table 1). EGFR expression is measured by Western blotting, using anti-EGFR monoclonal antibodies from Transduction Labs (Lexington, Ky.). The cell lines are obtained from the ATCC (Rockville, […].). The cells are cultured in 5% CO2 at 37° C.
20 million tissue culture cells (about 80% confluent) or 200 million WBCs are incubated for 2 or 24 h in culture medium containing 3 μM of an EGFR tyrosine kinase inhibitor or 0.03% DMSO. Total RNA from cell pellet is isolated using the RNeasy kit (Qiagen). mRNA is isolated using the oligotex mRNA purification kit (Qiagen). The quality of the obtained mRNA is tested by real time RT-PCR using beta-Actin primers (PE Applied Biosystems) with an amplicon size of 300 base pairs (bp). The total RNA is used as a reference to calculate the amount of mRNA-enrichment in the oligotex purified samples.
Probes for the UniGEM hybridization are synthesized by Incyte Genomics (Palo Alto, Calif., USA). For each probe 200 ng mRNA (50 ng/μl) is shipped in dry ice. The results are analyzed using the Expressionist Software Package provided by GeneData.
Expression profiles (UniGEM V arrays) of 4 tumor cell lines with different EGFR expression status (A431, NCI-H596, NCI-H520 and MDA-MB-468) and of WBCs upon exposure of cells to 3 μM of COMPOUND A for 2 or 24 h are analyzed. As control, cells treated with DMSO for the same time period are used. […] The cDNA array hybridization is repeated with the UniGEM 1 array using the same mRNA (Table 3).

`C[C@@H](Nc1ncnc2[nH]c(-c3ccc(O)cc3)cc12)c1ccccc1` [COMPOUND A, (R)-6-(4-hydroxy-phenyl)-4-[(1-phenyl-ethyl)-amino]-7H-pyrrolo[2,3-d]pyrimidine] was tested. Which “Relative Clusterin expression” value [1] did it give?
The value was 0.61 n-fold.

And the “Relative TRAIL expression” value [1]?
Its value is 0.39 n-fold.

And the “Relative VAC-beta expression” value [1]?
Its value is 0.75 n-fold.

What about the “Gene induction, Micro Array UniGEM 1: Acute phase serum amyloid A protein” value ([2]; 3 μM, RNA from Experiment 1) of the same compound?
Its value is 4.4.

And the “Gene induction, Micro Array UniGEM 1: Cathepsin H” value ([2]; 3 μM, RNA from Experiment 1)?
Its value is 2.2.

And the “Gene induction, Micro Array UniGEM 1: Caveolin” value ([2]; 3 μM, RNA from Experiment 1)?
Its value is 3.4.

And the “Gene induction, Micro Array UniGEM 1: Complement component 3 (C3)” value ([2]; 3 μM, RNA from Experiment 1)?
The value was 3.1.

And the “Gene induction, Micro Array UniGEM 1: Complement cytolysis inibitor (Clusterin)” value ([2]; 3 μM, RNA from Experiment 1)?
Its value is 2.7.

And the “Gene induction, Micro Array UniGEM 1: DNA binding protein inhibitor ID-3” value ([2]; 3 μM, RNA from Experiment 1)?
The value was 2.1.

And the “Gene induction, Micro Array UniGEM 1: Extracellular protein S1-5” value ([2]; 3 μM, RNA from Experiment 1)?
Its value is 3.3.

What about the “Gene induction, Micro Array UniGEM 1: TGF-beta induced gene” value ([2]; 3 μM, RNA from Experiment 1) of the same compound?
Its value is 2.1.

And the “Gene induction, Micro Array UniGEM 1: TRAIL” value ([2]; 3 μM, RNA from Experiment 1)?
Its value is 3.0.

And the “Gene induction, Micro Array UniGEM 1: VAC-beta (annexin VIII)” value ([2]; 3 μM, RNA from Experiment 1)?
The value was 3.0.

And the “Differential Expression (Balanced): Human D-type cyclin (CCND2) mRNA {IM359412}” value ([2]; GB Acc. No. AA010487, 3 μM, versus DMSO treated cells, negative numbers: repressed genes)?
The value was −8.2.

And the “Differential Expression (Balanced): ESTs {IM365120}” value ([2]; GB Acc. No. AA025124, 3 μM, versus DMSO treated cells)?
The value was 2.7.

And the “Differential Expression (Balanced): Human HE4 mRNA for extracellular protease {IM366323}” value ([2]; GB Acc. No. AA025750, 3 μM, versus DMSO treated cells)?
The value was 2.6.

What about the “Differential Expression (Balanced): Human mRNA for precursor of epidermal growth factor receptor {IM469272}” value ([2]; GB Acc. No. AA026089, 3 μM, versus DMSO treated cells) of the same compound?
The value was 2.8.

What about the “Differential Expression (Balanced): Human cyclin-dependent protein kinase mRNA {IM366824}” value ([2]; GB Acc. No. AA029438, 3 μM, versus DMSO treated cells) of the same compound?
The value was 2.8.

And the “Differential Expression (Balanced): Human extracellular protein (S1-5) mRNA {IM470007}” value ([2]; GB Acc. No. AA030000, 3 μM, versus DMSO treated cells)?
The value was 3.3.

And the “Differential Expression (Balanced): ESTs {IM471869}” value ([2]; GB Acc. No. AA035156, 3 μM, versus DMSO treated cells)?
The value was 3.0.

And the “Differential Expression (Balanced): Human nucleotide-binding protein mRNA; c {IM376052}” value ([2]; GB Acc. No. AA039353, 3 μM, versus DMSO treated cells, negative numbers: repressed genes)?
The value was −3.5.

And the “Differential Expression (Balanced): ESTs {IM485336} contains Alu repetitive elements” value ([2]; GB Acc. No. AA039628, 3 μM, versus DMSO treated cells, negative numbers: repressed genes)?
Its value is −6.8.

And the “Differential Expression (Balanced): Human 5′-AMP-activated protein kinase; g {IM376178}” value ([2]; GB Acc. No. AA040600, 3 μM, versus DMSO treated cells, negative numbers: repressed genes)?
Its value is −4.1.

What about the “Differential Expression (Balanced): Human mRNA for pancreatic carcinoma marker {IM376296} (Trop-2)” value ([2]; GB Acc. No. AA041250, 3 μM, versus DMSO treated cells) of the same compound?
The value was 3.0.

And the “Differential Expression (Balanced): Human complement component 3 (C3) gene {IM485717}” value ([2]; GB Acc. No. AA041549, 3 μM, versus DMSO treated cells)?
Its value is 3.1.

What about the “Differential Expression (Balanced): Human annexin VIII mRNA; complete cds. {IM376634} (VAC-beta)” value ([2]; GB Acc. No. AA046102, 3 μM, versus DMSO treated cells) of the same compound?
The value was 3.0.

What about the “Differential Expression (Balanced): Human mRNA for caveolin {IM488533}” value ([2]; GB Acc. No. AA047243, 3 μM, versus DMSO treated cells) of the same compound?
The value was 3.4.

What about the “Differential Expression (Balanced): Fibronectin {IM512287}” value ([2]; GB Acc. No. AA057694, 3 μM, versus DMSO treated cells, negative numbers: repressed genes) of the same compound?
Its value is −8.8.

And the “Differential Expression (Balanced): ESTs {IM377004}” value ([2]; GB Acc. No. AA057780, 3 μM, versus DMSO treated cells)?
The value was 2.7.

And the “Differential Expression (Balanced): TransformIng growth factor-beta induced gene product (BIGH3)” value ([2]; GB Acc. No. AA057802, 3 μM, versus DMSO treated cells)?
Its value is 2.1.

What about the “Differential Expression (Balanced): Human mRNA for cathepsin H (E.C.3.4.22.1) {IM489348}” value ([2]; GB Acc. No. AA058337, 3 μM, versus DMSO treated cells) of the same compound?
The value was 2.2.

What about the “Differential Expression (Balanced): Human fibronectin gene extra type III re {IM151144}” value ([2]; GB Acc. No. H03907, 3 μM, versus DMSO treated cells, negative numbers: repressed genes) of the same compound?
Its value is −6.9.

And the “Differential Expression (Balanced): ESTs {IM46265}” value ([2]; GB Acc. No. H09077, 3 μM, versus DMSO treated cells, negative numbers: repressed genes)?
Its value is −21.9.

What about the “Differential Expression (Balanced): Human ribosomal protein L5 pseudogene mRNA {IM50482}” value ([2]; GB Acc. No. H17614, 3 μM, versus DMSO treated cells, negative numbers: repressed genes) of the same compound?
The value was −3.6.

What about the “Differential Expression (Balanced): ESTs {IM172005}” value ([2]; GB Acc. No. H18621, 3 μM, versus DMSO treated cells, negative numbers: repressed genes) of the same compound?
The value was −3.1.

What about the “Differential Expression (Balanced): Human acute phase serum amyloid A protein {IM161456}” value ([2]; GB Acc. No. H25546, 3 μM, versus DMSO treated cells) of the same compound?
The value was 4.4.

What about the “Differential Expression (Balanced): Human TNF-related apoptosis inducing ligand TRAIL {IM203132}” value ([2]; GB Acc. No. H54629, 3 μM, versus DMSO treated cells) of the same compound?
The value was 4.0.

What about the “Differential Expression (Balanced): Human complement cytolysis inhibitor (CLI) mRNA; complete cds (Clusterin)” value ([2]; GB Acc. No. M25915, 3 μM, versus DMSO treated cells) of the same compound?
Its value is 2.7.

What about the “Differential Expression (Balanced): ESTs {248032}” value ([2]; GB Acc. No. N53767, 3 μM, versus DMSO treated cells) of the same compound?
Its value is 2.6.

And the “Differential Expression (Balanced): Rat N-syndecan mRNA {IM26677}” value ([2]; GB Acc. No. R13994, 3 μM, versus DMSO treated cells)?
The value was 2.9.

And the “Differential Expression (Balanced): Human fibronectin (fn) 3′ coding region {IM136798}” value ([2]; GB Acc. No. R36450, 3 μM, versus DMSO treated cells, negative numbers: repressed genes)?
Its value is −4.7.

And the “Differential Expression (Balanced): ESTs {IM23605}” value ([2]; GB Acc. No. R39436, 3 μM, versus DMSO treated cells)?
The value was 2.6.

And the “Differential Expression (Balanced): PUTATIVE LYMPHOCYTE G0/G1 SWITCH PROTEIN 2 {IM67939}” value ([2]; GB Acc. No. T52813, 3 μM, versus DMSO treated cells, negative numbers: repressed genes)?
Its value is −3.3.

And the “Differential Expression (Balanced): ESTs {IM73785}” value ([2]; GB Acc. No. T54672, 3 μM, versus DMSO treated cells)?
The value was 2.6.

What about the “Differential Expression (Balanced): ESTs {IM74546}” value ([2]; GB Acc. No. T59122, 3 μM, versus DMSO treated cells) of the same compound?
Its value is 2.9.

What about the “Differential Expression (Balanced): Human mitosin mRNA; complete cds. {IM113765}” value ([2]; GB Acc. No. T76993, 3 μM, versus DMSO treated cells, negative numbers: repressed genes) of the same compound?
Its value is −3.0.

And the “Differential Expression (Balanced): DNA-BINDING PROTEIN INHIBITOR ID-3 {IM323946}” value ([2]; GB Acc. No. W46413, 3 μM, versus DMSO treated cells)?
Its value is 2.1.

And the “Differential Expression (Balanced): Human nuclear orphan receptor LXR-alpha {IM357775}” value ([2]; GB Acc. No. W95433, 3 μM, versus DMSO treated cells, negative numbers: repressed genes)?
Its value is −3.0.
